Data published in article PMC5382172 (Frontiers in Molecular Neuroscience, 2017).

Tests used:
[1] = biological target: T1, GluClβWT (GLC-2) homomeric receptor (Caenorhabditis elegans, UniProt Q17328); assay: Whole-cell patch clamp in CHO cells transfected with GluClβWT subunit alone; type: cell-based; conditions: βWT alone, 500 nM IVM, -60 mV
T1 construct: entry codes of the full-length subunits used in this study; expressed in transfected cells; host or cells: CHO cells, transient transfection, pcDNA3.1
T1 sequence (Q17328 23-434): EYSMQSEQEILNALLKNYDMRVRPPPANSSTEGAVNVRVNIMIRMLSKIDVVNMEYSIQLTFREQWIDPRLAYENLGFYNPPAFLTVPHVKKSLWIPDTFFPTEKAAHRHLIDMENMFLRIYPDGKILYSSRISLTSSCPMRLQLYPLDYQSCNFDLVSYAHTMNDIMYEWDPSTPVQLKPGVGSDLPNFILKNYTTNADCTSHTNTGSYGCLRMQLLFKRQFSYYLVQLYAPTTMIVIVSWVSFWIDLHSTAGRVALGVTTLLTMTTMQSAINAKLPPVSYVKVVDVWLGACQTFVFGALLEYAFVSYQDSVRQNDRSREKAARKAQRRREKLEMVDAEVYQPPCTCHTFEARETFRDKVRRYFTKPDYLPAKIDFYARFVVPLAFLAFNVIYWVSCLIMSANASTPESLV
Procedure: Chinese hamster ovary (CHO) cells were cultured as previously (Bar-Lev et al., [2011]) in Dulbecco’s Modified Eagle Medium (DMEM) containing 10% fetal calf serum, 2 mM glutamax, 100 Units/ml penicillin G and 100 μg/ml streptomycin, and grown in 5% CO2 at 37°C under 90%–95% humidity. The cells were seeded on glass coverslips (13-mm diameter) placed in a 24-multiwell plate. […] For the expression of GluCl receptors, cells were transiently co-transfected with pcDNA3.1 plasmids containing the ORFs of interest using transit-LT1 transfection reagent (Mirus, Madison, WI, USA), according to the manufacturer’s protocol. The cDNAs encoding the C. elegans GluClα (GLC-1) or its mutated versions and the GluClβ (GLC-2) subunits (200–600 ng per well) were used at 1:1 ratio. The pIRES-CD8 plasmid (200 ng per well) was added to enable the visualization of the expressing cells by beads coated with anti-CD8 antibodies (Invitrogen). […]
Whole-cell patch clamp recordings were performed as described previously (Bar-Lev et al., [2011]) in CHO cells that were prepared as detailed above. […] The currents were measured with an Axopatch 200B patch-clamp amplifier (Molecular Devices, Sunnyvale, CA, USA) and a Digidata 1440A interface (Molecular Devices). […]

GluClαWT/βWT receptor = biological target: T2, GluClαWT/βWT receptor (Caenorhabditis elegans, UniProt G5EBR3+Q17328); set-up: method as in Degani-Katzav et al., [2016]; conditions: CHO cells co-transfected with WT α and β subunits; ref Degani-Katzav et al., [2016]; cited from earlier work
T2 construct: entry codes of the full-length subunits used in this study; expressed in transfected cells; host or cells: CHO cells, transient co-transfection 1:1, pcDNA3.1
T2 sequence (G5EBR3 21-461): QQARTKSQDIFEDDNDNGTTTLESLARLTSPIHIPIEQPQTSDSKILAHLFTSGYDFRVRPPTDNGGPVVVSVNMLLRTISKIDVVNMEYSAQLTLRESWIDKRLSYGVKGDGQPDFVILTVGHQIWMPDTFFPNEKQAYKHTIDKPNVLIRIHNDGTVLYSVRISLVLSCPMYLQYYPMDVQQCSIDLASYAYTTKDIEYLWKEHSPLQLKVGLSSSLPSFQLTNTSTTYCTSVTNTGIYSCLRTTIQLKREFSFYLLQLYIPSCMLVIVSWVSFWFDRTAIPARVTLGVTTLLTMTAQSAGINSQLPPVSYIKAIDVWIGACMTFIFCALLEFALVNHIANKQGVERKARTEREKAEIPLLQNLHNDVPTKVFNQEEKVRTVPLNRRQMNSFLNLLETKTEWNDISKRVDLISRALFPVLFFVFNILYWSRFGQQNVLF
T2 sequence (Q17328 23-434): T1 sequence (Q17328 23-434)

## CC[C@H](C)[C@H]1O[C@]2(CC[C@@H]1C)C[C@@H]1C[C@@H](C/C=C(\C)[C@@H](O[C@H]3C[C@H](OC)[C@@H](O[C@H]4C[C@H](OC)[C@@H](O)[C@H](C)O4)[C@H](C)O3)[C@@H](C)/C=C/C=C3\CO[C@@H]4[C@H](O)C(C)=C[C@@H](C(=O)O1)[C@]34O)O2 [IVM, ivermectin]
[1]
  IVM (500 nM) Amplitude: 0.0 ± 0.0 (10) nA
GluClαWT/βWT receptor
  response to IVM: robust responses
